Assay results from patent US5582813A, “Iodine-containing fluorocarbon contrast agents” (Alliance Pharmaceutical Corp., priority 1993, dated 1996).

Key:
liver = experiment: In vivo radiopacity, rabbit liver imaging; set-up: species or system rabbits; settings: 0.39 g of Compound IA
Experimental: In order to determine the ability of the compositions of the present invention to operate as effective contrast enhancement agents, we undertook an in vivo study in rabbits to image their livers.
In the study, 3 rabbits were injected with the emulsion of Example 5 at a dose of 3 mL of emulsion per kg of animal, i.e., 2.34 g/kg (4.2 mM of Compound IA), at the rate of 0.5 mL/min.
The radiopacity of the liver and spleen of each rabbit was then measured. The animals were held in a cage and radiopacity was measured using a Philips Tomoscan LX scanner at 120 kV and 175 mA, with continuous 5 mm scans slice with 7 mm intervals. The duration of each scan was 1.2 seconds. These measurements were taken before the injection, then at 24 hours, 48 hours, 7 days, 15 days, and 30 days after the injection.
The results from this study are shown in FIG. 2, which is a bar graph showing the comparison between the radiopacity of the liver (as determined by the increase in Hounsfield units) observed with the emulsion of Example 5 and a PFOB emulsion (Example 6), at 24 hours and 48 hours after injection. The concentration of the emulsion of Example 5 was at a dose of […]. The concentration of the PFOB emulsion was at a dose of 2.7 g/kg body weight (5.4 mM of Perflubron/kg).

mice = experiment: Toxicity, intraperitoneal injection in mice; format: in vivo; settings: 10 mice, about 45 g/kg, one month
Excerpt: (§1) Beyond radiopacity and stability, the compounds used in the present invention are biocompatible. They are tolerated in high doses in animals. For example, in intraperitoneal administration in mice, the mice were still alive at the end of the protocol, one month post injection, even after doses of up to 45 g/kg of the iodinated fluorinated compounds used in the present invention had been injected. Further, in intravenous administration to mice of the compounds used in the present invention in emulsified form, the mice lived past the end of the protocol, one month post injection of doses up to 8 g/kg.
(§2) In order to determine the toxicity of Compound IA, we injected mice intraperitoneally with the compound. In the experiment, 10 mice were interperitoneally injected with a dose of about 45 g/kg per animal of Compound IA.
(§3) Compound IIIA was also tested for toxicity, following the procedure described in Example 2. A similar tolerance of greater than 45 g/kg animal weight was observed.
(§4) Each of the composition were intraperitoneally injected into mice at doses of 50 g/kg. All of the mice so injected survived and were alive past the end of the protocol, 30 days post injection.

[1] = In vitro opacity to X-rays of compounds in hexane solution (Philips Tomoscan LX); format: physicochemical; settings: 0.34 mol/L in hexane; 120 kV, 175 mA
Experimental: In order to determine the relative radiopacity of the compounds used in the present invention to X-rays, we undertook an in vitro study to compare the radiopacity of the above compound (IA) in relation to the radiopacity of perfluorooctyl bromide.
A solution of Compound IA was prepared having a concentration of 0.34 mol/L in hexane. A second solution of perfluorooctyl bromide (PFOB) with the same concentration in hexane was also prepared. The opacity to X-rays of the respective compounds in the hexane solutions was determined using a Philips Tomoscan LX 120 kV, 175 mA apparatus.
Following the procedure described in Example 1, we also measured the opacity to X-rays of Compound IIIA. As described, a solution of Compound IIIA was prepared at a concentration of 0.34 mol/L in hexane.
We also measured the radiopacity of each of the compositions using the in vitro test described in Example 1, where 0.34 mol/L solutions of the compositions were prepared in hexane and scanned using a Philips Tomoscan LX 120 kV, 175 mA apparatus.

[2] = Toxicity, intraperitoneal injection in mice; format: in vivo; settings: mouse, in vivo, ip; mice, intraperitoneal, g/kg animal weight; read-out: tolerance
Excerpt: as §1, §2, §3, §4

Row | Structure (SMILES) | amount of Perflubron giving equivalent contrast enhancement, relative to Compound IA (liver) [times] | survival after intraperitoneal injection (mice) | radiopacity relative to PFOB [1] | MTD [2] [mg/kg] | opacity to X-rays (in words) [1]
1 | CCCCCCC(I)=CC(F)(F)C(F)(F)C(F)(F)C(F)(F)C(F)(F)C(F)(F)F [Compound IA, C6 F13 --CH=CI--C6 H13] | 7 | all animals survived and were thriving, showing no ill effects | approximately four |  | 
2 | CCCCCCC(I)=CC(F)(F)C(F)(F)C(F)(F)C(F)(F)C(F)(F)C(F)(F)C(F)(F)C(F)(F)F [Compound IIIA, C8 F17 --CH=CI--C6 H13] |  |  |  | > 45000 | A similar opacity was observed for Compound IIIA as was observed for Compound IA
